Laboratory results: ChEMBL document CHEMBL1799958, “Aminoalkylcarbamoylphosphonates reduce TNFα release from activated immune cells” (Bioorg Med Chem Lett, 2010)
Active and inactive are the calls of the source. The calls are words filed in the database; no cut-off is given here.

Experiments:
RAW264.7 [1] = test: Antiinflammatory activity against LPS-stimulated […] at 100 uM after 24 hrs by ELISA relative to control; format: functional; conditions: RAW264.7, 24 h
RAW264.7 [2] = test: Cytotoxicity against […] assessed as effect on cell viability at 100 uM after 2 hrs by MTT assay; format: cell-based; conditions: raw264.7, 2 h
Splenocyte [3] = test: Antiinflammatory activity against LPS-stimulated splenocytes isolated from thioglycolate-stimulated C57BL/6 mouse at 10 uM after 24 hrs by ELISA relative to control; format: functional, cell-based
Splenocyte [4] = test: Antiinflammatory activity against LPS-stimulated splenocytes isolated from thioglycolate-stimulated C57BL/6 mouse at 10 to 100 uM after 24 hrs by ELISA relative to control; format: functional, cell-based
[5] = Cytotoxicity against splenocytes isolated from thioglycolate-stimulated C57BL/6 mouse at 10 to 100 uM after 2 hrs by MTT assay; format: cell-based; conditions: splenocyte
[6] = Cytotoxicity against LPS-stimulated splenocytes isolated from thioglycolate-stimulated C57BL/6 mouse assessed as alterations in forward and side scattering distribution for splenocytes using propidium iodide-staining after 24 hrs by FACS analysis; format: cell-based; conditions: splenocyte
[7] = Cytotoxicity against LPS-stimulated splenocytes isolated from thioglycolate-stimulated C57BL/6 mouse assessed as alterations in forward and side scattering distribution for splenocytes using propidium iodide-staining after 48 hrs by FACS analysis; format: cell-based; conditions: splenocyte
[8] = Toxicity in LPS-stimulated splenocytes cells isolated from thioglycolate-stimulated C57BL/6 mouse assessed as decrease in live cells at 100 uM after 48 hrs using propidium iodide-staining by FACS analysis; format: cell-based; conditions: splenocyte
RAW264.7 [9] = test: Toxicity in LPS-stimulated […] assessed as decrease in live cells at 100 uM using propidium iodide-staining by FACS analysis; format: cell-based; conditions: raw264.7, 100 µM
[10] = biological target: Disintegrin and metalloproteinase domain-containing protein 17 (Homo sapiens) (UniProt P78536); test: Inhibition of recombinant TACE using Mca-P-L-A-Q-A-V-Dpa-R-S-S-S-R-NH2 as substrate at 1 to 100 uM after 3 hrs by fluorescence assay
Chain of Disintegrin and metalloproteinase domain-containing protein 17 (Homo sapiens) (P78536 whole entry, the tested form may be a part): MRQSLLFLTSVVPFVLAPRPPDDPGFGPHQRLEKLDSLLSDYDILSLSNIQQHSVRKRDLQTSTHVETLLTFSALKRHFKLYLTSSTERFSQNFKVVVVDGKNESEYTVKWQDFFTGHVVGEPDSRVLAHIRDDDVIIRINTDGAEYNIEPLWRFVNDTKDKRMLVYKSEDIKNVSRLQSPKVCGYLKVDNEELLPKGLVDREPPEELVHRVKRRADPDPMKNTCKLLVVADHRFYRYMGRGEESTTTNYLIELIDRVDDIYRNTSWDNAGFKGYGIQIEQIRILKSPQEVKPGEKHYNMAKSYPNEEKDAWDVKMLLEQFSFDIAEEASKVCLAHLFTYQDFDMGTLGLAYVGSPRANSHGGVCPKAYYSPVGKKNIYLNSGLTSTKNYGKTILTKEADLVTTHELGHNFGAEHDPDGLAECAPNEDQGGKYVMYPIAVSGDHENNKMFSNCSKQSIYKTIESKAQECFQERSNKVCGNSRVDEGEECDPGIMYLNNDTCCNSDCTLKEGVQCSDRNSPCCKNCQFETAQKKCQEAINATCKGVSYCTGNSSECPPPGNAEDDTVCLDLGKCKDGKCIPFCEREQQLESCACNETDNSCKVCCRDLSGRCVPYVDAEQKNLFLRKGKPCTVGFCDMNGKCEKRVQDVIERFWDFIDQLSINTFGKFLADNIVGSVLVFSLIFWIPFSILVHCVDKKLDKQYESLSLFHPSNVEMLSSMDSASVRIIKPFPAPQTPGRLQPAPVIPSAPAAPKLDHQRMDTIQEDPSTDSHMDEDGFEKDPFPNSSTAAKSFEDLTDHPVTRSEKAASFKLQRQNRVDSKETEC

[11] = Antiinflammatory activity against LPS-stimulated splenocytes cells isolated from thioglycolate-stimulated C57BL/6 mouse assessed as reduction of TNFalpha mRNA level at 100 to 200 uM after 24 hrs by RT-PCR; format: functional, Splenocyte
[12] = Toxicity in LPS-stimulated splenocytes cells isolated from thioglycolate-stimulated C57BL/6 mouse assessed as decrease in live cells at 100 uM after 24 hrs using propidium iodide-staining by FACS analysis; format: cell-based; conditions: splenocyte
RAW264.7 [13] = test: Antiinflammatory activity against LPS-stimulated […] at 10 uM after 24 hrs by ELISA relative to control; format: functional; conditions: RAW264.7, 24 h
RAW264.7 [14] = test: Cytotoxicity against […] assessed as effect on cell viability at 10 uM after 2 hrs by MTT assay; format: cell-based; conditions: raw264.7, 2 h
[15] = Cytotoxicity against splenocytes isolated from thioglycolate-stimulated C57BL/6 mouse at 10 uM after 2 hrs by MTT assay; format: cell-based; conditions: splenocyte
[16] = Toxicity in LPS-stimulated splenocytes isolated from thioglycolate-stimulated C57BL/6 mouse assessed as decrease in live cells at 10 uM after 24 hrs using propidium iodide-staining by FACS analysis; format: cell-based; conditions: splenocyte
[17] = Toxicity in LPS-stimulated splenocytes isolated from thioglycolate-stimulated C57BL/6 mouse assessed as decrease in live cells at 10 uM after 48 hrs using propidium iodide-staining by FACS analysis; format: cell-based; conditions: splenocyte

For O=C(NCCN1CCCC1)P(=O)(O)O, the inhibition at 100 µM (RAW264.7 [1]) was 60%, the Activity (RAW264.7 [2]) was “Non-toxic” and the inhibition (Splenocyte [3]) was “Active”. The inhibition (Splenocyte [4]) was “Active”, the Activity [5] was “Non-toxic” and the Activity [6] was “Non-toxic”. For the same molecule, the Activity [7] was “Non-toxic”, the Activity [8] was “Non-toxic” and the Activity (RAW264.7 [9]) was “Non-toxic”. For the same molecule, the inhibition [10] was “inactive”, the “inhibition (INH)” value [11] was 30% and the Activity [12] was “Non-toxic”.

In the case of N[C@H]1CCCC[C@H]1NC(=O)P(=O)(O)O (relative stereo), the inhibition at 100 µM (RAW264.7 [1]) is reported as 60%, the Activity (RAW264.7 [2]) is reported as “Non-toxic” and the inhibition (Splenocyte [4]) is reported as “Active”. For the same molecule, the Activity [5] was “Non-toxic”, the Activity [6] was “Non-toxic” and the Activity [7] was “Non-toxic”. For the same molecule, the Activity [8] was “Non-toxic”, the Activity (RAW264.7 [9]) was “Non-toxic” and the inhibition [10] was “inactive”. The “inhibition (INH)” value [11] was 30% and the Activity [12] was “Non-toxic”.

With O=C(NCCN1CCCCC1)P(=O)(O)O the inhibition at 100 µM (RAW264.7 [1]) was 60%, the Activity (RAW264.7 [2]) was “Non-toxic” and the inhibition (Splenocyte [4]) was “Active”. For the same molecule, the Activity [5] was “Non-toxic”, the Activity [6] was “Non-toxic” and the Activity [7] was “Non-toxic”. The Activity [8] was “Non-toxic”, the Activity (RAW264.7 [9]) was “Non-toxic” and the inhibition [10] was “Active”. For the same molecule, the “inhibition (INH)” value [11] was 30% and the Activity [12] was “Non-toxic”.

For CCCC1O[C@@H]2C[C@H]3[C@@H]4CCC5=CC(=O)C=C[C@]5(C)[C@H]4[C@@H](O)C[C@]3(C)[C@]2(C(=O)CO)O1 (stereo not given in full) [BUDESONIDE], the inhibition at 10 µM (RAW264.7 [13]) was 60%, the Activity (RAW264.7 [14]) was “Non-toxic” and the inhibition (Splenocyte [3]) was “Active”. The Activity [15] was “Non-toxic”, the Activity [16] was “Toxic” and the Activity [17] was “Toxic”.
